# pIC50: −log10 of the molar value.
# Test system: human platelet rich plasma
# Assay: Inhibition of human platelet aggregation, "Born"-method in single cuvettes (ADP-induced, platelet rich plasma)
# Assay type: cell-based
# Details: Platelet, 0.1 h, human PRP, aggregation induced by ADP, measured over 6 minutes at 37° C.
# Method: Alternatively to a binding assay which measures a compound's ability to bind to the P2Y12 receptor, the effect on cellular function was also determined. This ability of the compound was evaluated in two platelet aggregation assays: in 96-well plates and with the “Born”-method using single cuvettes.
# Whole blood was collected from healthy volunteers using 20 ml syringes containing 2 ml of buffered Citrate. The anticoagulated whole blood was transferred into 15 ml polypropylene conical tubes (10 ml per tube). The tubes were centrifuged for 15 minutes at 340×g at RT without using the centrifuge brake. This procedure leads to a pellet of cellular components and a supernatant of platelet rich plasma (PRP). The PRP layer was collected from each tube and pooled for each donor. To avoid carry over of cellular components following centrifugation, approximately 5 ml of PRP was left in the tube. The platelet concentration was determined using a Coulter Counter.
# The 15 ml tubes containing the pellet of cellular components were centrifuged again for 10 minutes at 1940×g. This pelleted out most particulate blood constituents remaining, leaving a layer of Platelet Poor Plasma (PPP). The PPP was collected for each donor. The PRP layer, previously set aside, was diluted with PPP to a final concentration of approximately 3×E8 platelets/ml with the PPP.
# The human platelet aggregation assay is performed in single use cuvettes using the platelet aggregation profiler (PAP-4 or -8, Bio/Data corporation).
# In the assay cuvette 4 μl of test compound at 100× final concentration in DMSO is mixed with 392 μl fresh PRP and incubated for 2 minutes at 37° C. with 1.200 rpm stirring. Following that incubation period, 4 μl of 250 μM ADP is added to the reaction mix. This addition of ADP is sufficient to induce aggregation in the absence of an inhibitor. After that aggregation is measured over 6 minutes at 37° C. with 1.200 rpm stirring. Results of the assay are expressed as % inhibition, and are calculated using maximum aggregation (Tmax) or area under curve (AUC) of the absorbance over 6 minutes.
row,Compound,pIC50
1,"CCOC(=O)[C@@H]1C[C@@H](O)CN1C(=O)COc1cc(C(=O)N[C@@H](CCC(=O)O)C(=O)N2CCN(C(=O)OCC)CC2)nc2ccccc12 [Example 75, 4-[(S)-4-Carboxy-2-({4-[2-((2S,4R)-2-ethoxycarbonyl-4-hydroxy-pyrrolidin-1-yl)-2-oxo-ethoxy]-quinoline-2-carbonyl}-amino)-butyryl]-piperazine-1-carboxylic acid ethyl ester]",6.72
2,"CCOC(=O)N1CCN(C(=O)[C@H](CCC(=O)O)NC(=O)c2cc(OCC(=O)N3CCCC3c3ccco3)c3ccccc3n2)CC1 (stereo partly drawn) [Example 317, 4-[(S)-4-Carboxy-2-({4-[2-(2-furan-2-yl-pyrrolidin-1-yl)-2-oxo-ethoxy]-quinoline-2-carbonyl}-amino)-butyryl]-piperazine-1-carboxylic acid ethyl ester]",6.54
3,"CCOC(=O)N1CCN(C(=O)[C@H](CCC(=O)O)NC(=O)c2cc(OCC(=O)N3CCC(S(C)(=O)=O)C3)c3ccc(C)cc3n2)CC1 (stereo partly drawn) [Example 18, 4-[(S)-4-Carboxy-2-({4-[2-(3-methanesulfonyl-pyrrolidin-1-yl)-2-oxo-ethoxy]-7-methyl-quinoline-2-carbonyl}-amino)-butyryl]-piperazine-1-carboxylic acid ethyl ester]",6.80
4,"CCOC(=O)N1CCN(C(=O)[C@H](CCC(=O)O)NC(=O)c2cc(OCC(=O)N3CC(O)CC3C(=O)OC)c3ccccc3n2)CC1 (stereo partly drawn) [Example 71, 4-[(S)-4-Carboxy-2-({4-[2-(4-hydroxy-2-methoxycarbonyl-pyrrolidin-1-yl)-2-oxo-ethoxy]-quinoline-2-carbonyl}-amino)-butyryl]-piperazine-1-carboxylic acid ethyl ester]",6.51
5,"CCOC(=O)N1CCN(C(=O)[C@H](CCC(=O)O)NC(=O)c2cc(OCC(=O)N3CCC[C@H]3C(=O)NC3CC3)c3ccc(C)cc3n2)CC1 [Example 3, 4-[(S)-4-Carboxy-2-({4-[2-((S)-2-cyclopropylcarbamoyl-pyrrolidin-1-yl)-2-oxo-ethoxy]-7-methyl-quinoline-2-carbonyl}-amino)-butyryl]-piperazine-1-carboxylic acid ethyl ester]",6.74
6,"CCOC(=O)N1CCN(C(=O)[C@H](CCC(=O)O)NC(=O)c2cc(OCC(=O)N3CC[C@H](CO)C3)c3ccc(C)cc3n2)CC1 [Example 50, 4-[(S)-4-Carboxy-2-({4-[2-((S)-3-hydroxymethyl-pyrrolidin-1-yl)-2-oxo-ethoxy]-7-methyl-quinoline-2-carbonyl}-amino)-butyryl]-piperazine-1-carboxylic acid ethyl ester]",6.23
7,"CCOC(=O)N1CCN(C(=O)[C@H](CCC(=O)O)NC(=O)c2cc(OCC(=O)N3CCC[C@H]3C(=O)O)c3ccc(C)cc3n2)CC1 [Example 17, 4-[(S)-4-Carboxy-2-({4-[2-((S)-2-carboxy-pyrrolidin-1-yl)-2-oxo-ethoxy]-7-methyl-quinoline-2-carbonyl}-amino)-butyryl]-piperazine-1-carboxylic acid ethyl ester]",6.62

# The remaining lines, values ahead:
row,pIC50,Compound
1,7.11,"CCCCOC(=O)N1CCN(C(=O)[C@H](CCc2nnn(C)n2)NC(=O)c2cc(OCC(=O)N3CCC[C@H]3C(=O)NC3CCC3)c3ccc(C)cc3n2)CC1 [Example 693, 4-[(S)-2-({4-[2-((S)-2-Cyclobutylcarbamoyl-pyrrolidin-1-yl)-2-oxo-ethoxy]-7-methyl-quinoline-2-carbonyl}-amino)-4-(2-methyl-2H-tetrazol-5-yl)-butyryl]-piperazine-1-carboxylic acid butyl ester]"
2,6.92,"CCCCOC(=O)N1CCN(C(=O)[C@H](CCOC)NC(=O)c2cc(OCC(=O)N3CCC[C@H]3C(=O)NC3CCC3)c3ccc(C)cc3n2)CC1 [Example 521, 4-[(S)-2-({4-[2-((S)-2-Cyclobutylcarbamoyl-pyrrolidin-1-yl)-2-oxo-ethoxy]-7-methyl-quinoline-2-carbonyl}-amino)-4-methoxy-butyryl]-piperazine-1-carboxylic acid butyl ester]"
3,7.70,"CCCCOC(=O)N1CCN(C(=O)CNC(=O)c2cc(OCC(=O)N3CCC[C@H]3C(=O)NC3CCCC3)c3ccc(C)cc3n2)CC1 [Example 594, 4-[2-({4-[2-((S)-2-Cyclopentylcarbamoyl-pyrrolidin-1-yl)-2-oxo-ethoxy]-7-methyl-quinoline-2-carbonyl}-amino)-acetyl]-piperazine-1-carboxylic acid butyl ester]"
4,9.22,"CCCCOC(=O)N1CCN(C(=O)CNC(=O)c2cc(OCC(=O)N3C[C@H](O)C[C@H]3C(=O)NC3CCC3)c3ccc(C)cc3n2)CC1 [Example 689, 4-[2-({4-[2-((2S,4R)-2-Cyclobutylcarbamoyl-4-hydroxy-pyrrolidin-1-yl)-2-oxo-ethoxy]-7-methyl-quinoline-2-carbonyl}-amino)-acetyl]-piperazine-1-carboxylic acid butyl ester]"
5,7.52,"CCOC(=O)N1CCN(C(=O)[C@H](CCC(=O)O)NC(=O)c2cc(O[C@H](C)C(=O)N3CCC[C@H]3C(=O)NC3CCCC3)c3ccc(C)cc3n2)CC1 [Example 294, 4-[(S)-4-Carboxy-2-({4-[(R)-2-((S)-2-cyclopentylcarbamoyl-pyrrolidin-1-yl)-1-methyl-2-oxo-ethoxy]-7-methyl-quinoline-2-carbonyl}-amino)-butyryl]-piperazine-1-carboxylic acid ethyl ester]"
6,7.10,"CCCCOC(=O)N1CCN(C(=O)[C@H](CCC(=O)O)NC(=O)c2cc(OCC(=O)N3CCC[C@H]3c3ccccc3)c3ccc(C)cc3n2)CC1 [Example 481, 4-[(S)-4-Carboxy-2-({7-methyl-4-[2-oxo-2-((S)-2-phenyl-pyrrolidin-1-yl)-ethoxy]-quinoline-2-carbonyl}-amino)-butyryl]-piperazine-1-carboxylic acid butyl ester]"
7,7.52,"CCCCOC(=O)N1CCN(C(=O)CNC(=O)c2cc(OCC(=O)N3CCC[C@H]3C(=O)NC3CCC3)c3ccc(C)cc3n2)CC1 [Example 435, 4-[2-({4-[2-((S)-2-Cyclobutylcarbamoyl-pyrrolidin-1-yl)-2-oxo-ethoxy]-7-methyl-quinoline-2-carbonyl}-amino)-acetyl]-piperazine-1-carboxylic acid butyl ester]"

# Same assay, conditions: human PRP, aggregation induced by ADP, measured over 6 minutes at 37° C.
row,pIC50,Compound
1,7.03,4-{2-[(7-Methyl-4-{2-oxo-2-[4-(pyrrolidine-1-carbonyl)-piperidin-1-yl]-ethoxy}-quinoline-2-carbonyl)-amino]-acetyl}-piperazine-1-carboxylic acid butyl ester [Example 660]
